The test concerns L1210 leukemia ip in BDF1 mice, survival T/C. The experiment in a line: NCI In Vivo Anticancer Drug Screen. Data for tumor model L1210 Leukemia (intraperitoneal) in B6D2F1 (BDF1) mice. The settings on record: endpoint: mean survival time, higher = longer survival. In short, it runs like this:
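In this screen, tumor-bearing mice given compound are compared to those given vehicle, and their survival values are reported as a treated-to-control quotient.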

[1] abbreviates: dose: 100.0 mg/kg/injection, schedule: Q04DX003 (ip), vehicle: Klucel (hydroxypropylcellulose) (HPC).
Where [2] appears, read: dose: 200.0 mg/kg/injection, schedule: Q04DX003 (ip), vehicle: Klucel (hydroxypropylcellulose) (HPC).
Setting [3] is: dose: 400.0 mg/kg/injection, schedule: Q04DX003 (ip), vehicle: Klucel (hydroxypropylcellulose) (HPC).
The mark [4] stands for this setting: dose: 50.0 mg/kg/injection, schedule: Q01DX001 (ip), vehicle: saline.
[5] abbreviates: dose: 100.0 mg/kg/injection, schedule: Q01DX001 (ip), vehicle: saline.
Setting [6] is: dose: 200.0 mg/kg/injection, schedule: Q01DX001 (ip), vehicle: saline.

Each structure is given as a SMILES string. Toxic doses and inconclusive results are not listed.

Turning to `O=c1[nH]c2c(Cl)cccc2c2ccccc12`, the T/C (dose: 100.0 mg/kg/injection, schedule: Q01DX001 (ip), vehicle: carboxymethylcellulose (CMC)) was 100 % of control; the T/C (dose: 200.0 mg/kg/injection, schedule: Q01DX001 (ip), vehicle: carboxymethylcellulose (CMC)) is 107 % of control; the T/C (dose: 400.0 mg/kg/injection, schedule: Q01DX001 (ip), vehicle: carboxymethylcellulose (CMC)) is 102 % of control.

Regarding `CC(C)C(=O)Nc1ccc(Cl)c(Cl)c1`, the T/C (dose: 222.0 mg/kg/injection, schedule: Q01DX Z (ip), vehicle: methylcellulose (MC)) is 111 % of control; the T/C (dose: 333.0 mg/kg/injection, schedule: Q01DX Z (ip), vehicle: methylcellulose (MC)) is 98 % of control; the T/C (dose: 500.0 mg/kg/injection, schedule: Q01DX Z (ip), vehicle: methylcellulose (MC)) was 102 % of control.

Take `O=[N+]([O-])c1ccc(OCCO)c([N+](=O)[O-])c1`: the T/C reads like this: (dose: 50.0 mg/kg/injection, schedule: Q04DX003 (ip), vehicle: saline with Tween-80) 104 % of control; (dose: 100.0 mg/kg/injection, schedule: Q04DX003 (ip), vehicle: saline with Tween-80) 104 % of control; (dose: 200.0 mg/kg/injection, schedule: Q04DX003 (ip), vehicle: saline with Tween-80) 103 % of control.

Take `CN(CCCl)C(=O)Nc1ccc(Cl)cc1`: the T/C was 94 % of control under setting [1], 94 % of control under setting [2] and 90 % of control under setting [3].

Consider `CCO/C(C)=C(/C#N)c1ccc(Cl)cc1`, for which the T/C (dose: 12.5 mg/kg/injection, schedule: Q01DX009 (ip), vehicle: gum acacia) was 104 % of control; the T/C (dose: 25.0 mg/kg/injection, schedule: Q01DX009 (ip), vehicle: gum acacia) was 104 % of control; the T/C (dose: 50.0 mg/kg/injection, schedule: Q01DX009 (ip), vehicle: gum acacia) is 102 % of control.

With `CCCCCCCCCCCCCCC[As](=O)(O)CCCCCCCCCCCCCCC`, the T/C is 97 % of control under setting [4]; 95 % of control under setting [5]; 95 % of control under setting [6]; 95 % of control (dose: 400.0 mg/kg/injection, schedule: Q01DX001 (ip), vehicle: saline).

Consider `CCSC(=O)Nc1cccc(O)c1`, for which the T/C is 94 % of control (dose: 100.0 mg/kg/injection, schedule: Q01DX001 (ip), vehicle: saline + alcohol); 94 % of control (dose: 200.0 mg/kg/injection, schedule: Q01DX001 (ip), vehicle: saline + alcohol); 93 % of control (dose: 400.0 mg/kg/injection, schedule: Q01DX001 (ip), vehicle: saline + alcohol).

With `Cc1ccc(Oc2cccc3c2CC[N+](C)(C)C3)cc1`, the T/C (dose: 6.25 mg/kg/injection, schedule: Q04DX002 (ip), vehicle: Klucel (hydroxypropylcellulose) (HPC)) is 96 % of control; the T/C (dose: 12.5 mg/kg/injection, schedule: Q01DX001 (ip), vehicle: Klucel (hydroxypropylcellulose) (HPC)) is 97 % of control; the T/C (dose: 12.5 mg/kg/injection, schedule: Q04DX002 (ip), vehicle: Klucel (hydroxypropylcellulose) (HPC)) is 96 % of control; the T/C (dose: 25.0 mg/kg/injection, schedule: Q04DX002 (ip), vehicle: Klucel (hydroxypropylcellulose) (HPC)) was 100 % of control; the T/C (dose: 50.0 mg/kg/injection, schedule: Q01DX001 (ip), vehicle: Klucel (hydroxypropylcellulose) (HPC)) was 94 % of control.

With `CC(C)(c1ccccc1)[N+](C)(C)C`, the T/C is, setting by setting: (dose: 4.0 mg/kg/injection, schedule: Q01DX Z (ip), vehicle: saline) 93 % of control; (dose: 6.25 mg/kg/injection, schedule: Q01DX009 (ip), vehicle: saline) 97 % of control; (dose: 6.25 mg/kg/injection, schedule: Q04DX003 (ip), vehicle: saline) 104 % of control; (dose: 8.0 mg/kg/injection, schedule: Q01DX Z (ip), vehicle: saline) 96 % of control; (dose: 12.5 mg/kg/injection, schedule: Q01DX009 (ip), vehicle: saline) 91 % of control; (dose: 12.5 mg/kg/injection, schedule: Q04DX003 (ip), vehicle: saline) 103 % of control. In addition, the T/C is 92 % of control (dose: 16.0 mg/kg/injection, schedule: Q01DX Z (ip), vehicle: saline); 92 % of control (dose: 25.0 mg/kg/injection, schedule: Q01DX009 (ip), vehicle: saline); 91 % of control (dose: 25.0 mg/kg/injection, schedule: Q04DX003 (ip), vehicle: saline).

For `N#CSCc1ccc(CSC#N)c(Cl)c1`, the T/C by setting is: (dose: 1.56 mg/kg/injection, schedule: Q01DX009 (ip), vehicle: saline sonified) 97 % of control; (dose: 1.56 mg/kg/injection, schedule: Q04DX003 (ip), vehicle: saline with Tween-80) 101 % of control; (dose: 3.13 mg/kg/injection, schedule: Q01DX009 (ip), vehicle: saline sonified) 109 % of control; (dose: 3.13 mg/kg/injection, schedule: Q04DX003 (ip), vehicle: saline with Tween-80) 109 % of control; (dose: 6.25 mg/kg/injection, schedule: Q01DX009 (ip), vehicle: saline sonified) 111 % of control; (dose: 6.25 mg/kg/injection, schedule: Q04DX003 (ip), vehicle: saline with Tween-80) 109 % of control.

Take `CCC#CC(=O)OCCCCC`: the T/C reads like this: (dose: 100.0 mg/kg/injection, schedule: Q04DX002 (ip), vehicle: saline) 105 % of control; (dose: 200.0 mg/kg/injection, schedule: Q04DX002 (ip), vehicle: saline) 102 % of control; (dose: 400.0 mg/kg/injection, schedule: Q04DX002 (ip), vehicle: saline) 108 % of control.

As for `c1nc(Sc2ncnc3nc[nH]c23)c2[nH]cnc2n1`, the T/C is 108 % of control under setting [4]; 114 % of control (dose: 75.0 mg/kg/injection, schedule: Q01DX015 (ip), vehicle: saline); 104 % of control under setting [5]; 213 % of control (dose: 150.0 mg/kg/injection, schedule: Q01DX015 (ip), vehicle: other); 119 % of control under setting [6]; 115 % of control (dose: 238.0 mg/kg/injection, schedule: Q01DX001 (ip), vehicle: saline). For the same compound, the T/C was 176 % of control (dose: 300.0 mg/kg/injection, schedule: Q01DX015 (ip), vehicle: other); 117 % of control (dose: 356.0 mg/kg/injection, schedule: Q01DX001 (ip), vehicle: saline); 108 % of control (dose: 600.0 mg/kg/injection, schedule: Q01DX015 (ip), vehicle: other); 117 % of control (dose: 600.0 mg/kg/injection, schedule: Q01DX015 (ip), vehicle: saline).

Consider `O=P(NN1CCCCC1)(NN1CCCCC1)c1ccccc1`, for which the T/C is, setting by setting: (dose: 100.0 mg/kg/injection, schedule: Q01DX009 (ip), vehicle: carboxymethylcellulose (CMC)) 93 % of control; (dose: 200.0 mg/kg/injection, schedule: Q01DX009 (ip), vehicle: carboxymethylcellulose (CMC)) 93 % of control.

Turning to `CCC(=O)NC`, the T/C is, setting by setting: (dose: 100.0 mg/kg/injection, schedule: Q01DX001 (ip), vehicle: acetone) 100 % of control; (dose: 100.0 mg/kg/injection, schedule: Q01DX009 (ip), vehicle: acetone) 101 % of control; (dose: 200.0 mg/kg/injection, schedule: Q01DX001 (ip), vehicle: acetone) 100 % of control; (dose: 200.0 mg/kg/injection, schedule: Q01DX009 (ip), vehicle: acetone) 97 % of control; (dose: 400.0 mg/kg/injection, schedule: Q01DX001 (ip), vehicle: acetone) 100 % of control; (dose: 400.0 mg/kg/injection, schedule: Q01DX009 (ip), vehicle: acetone) 100 % of control. Moreover, the T/C is, setting by setting: (dose: 555.0 mg/kg/injection, schedule: Q01DX015 (ip), vehicle: water) 102 % of control; (dose: 833.0 mg/kg/injection, schedule: Q01DX015 (ip), vehicle: water) 115 % of control; (dose: 1000.0 mg/kg/injection, schedule: Q01DX001 (ip), vehicle: water) 98 % of control; (dose: 1500.0 mg/kg/injection, schedule: Q01DX001 (ip), vehicle: water) 104 % of control; (dose: 2000.0 mg/kg/injection, schedule: Q01DX001 (ip), vehicle: water) 113 % of control.

As for `NC(=S)N/N=C(/C(=O)O)c1ccc([N+](=O)[O-])cc1`, the T/C was 93 % of control (dose: 100.0 mg/kg/injection, schedule: Q01DX001 (ip), vehicle: Klucel (hydroxypropylcellulose) (HPC)); 104 % of control under setting [1]; 115 % of control (dose: 200.0 mg/kg/injection, schedule: Q01DX001 (ip), vehicle: Klucel (hydroxypropylcellulose) (HPC)); 98 % of control under setting [2]; 96 % of control (dose: 400.0 mg/kg/injection, schedule: Q01DX001 (ip), vehicle: Klucel (hydroxypropylcellulose) (HPC)); 93 % of control under setting [3].

Values taken from PubChem BioAssay AID248 (DTP/NCI, 2004).
